Laboratory results: patent US11752138B2 (VANDERBILT UNIVERSITY, priority 2020, dated 2023)

Molecular target: Human LDHA (Homo sapiens (Human), UniProt P00338)
Experiment: human LDHA primary biochemical assay (Example 1)
Settings: biochemical LDHA inhibitory activity, assay of Example 1
Excerpt: This example describes a human LDHA primary biochemical assay employed in the characterization of a compound of Formula I in an embodiment of the dislcosure.
Test compounds were placed in a Greiner Bio-One (Monroe, N.C.) 1536-well black solid bottom assay plate. 200 millimolar (mM) Tris HCl, pH 7.4, 100 micromolar (μM) EDTA and 0.01% TWEEN-20™, final concentration, was used as the assay buffer. The LDHA reagent was 2 nanomolar (nM) Human LDHA (Meridian Life Science, Inc., Memphis, Tenn.), final concentration, in assay buffer. The substrate reagent was 0.06 mM NADH and 0.2 mM sodium pyruvate, final concentration, in assay buffer. The resazurin/diaphorase coupling reagent was 0.037 mM resazurin and 0.133 milligrams per milliliter (mg/mL) diaphorase, final concentration, in assay buffer. The inhibition of LDHA activity was measured by fluorescence emission. […]

Compound	IC50
Cc1ccc(C#Cc2cccc(-c3nn(-c4nc(C(=O)O)cs4)c(CC4CC4)c3Cc3ccc(S(N)(=O)=O)c(F)c3)n2)s1 [Compound 231, 2-(5-(cyclopropylmethyl)-4-(3-fluoro-4-sulfamoylbenzyl)-3-(6-((5-methylthiophen-2-yl)ethynyl)pyridin-2-yl)-1H-pyrazol-1-yl)thiazole-4-carboxylic acid]	< 100 nM
Cc1ccc(C2CC(c3cccc(-c4nn(-c5nc(C(=O)O)cs5)c(CC5CC5)c4Cc4ccc(S(N)(=O)=O)c(F)c4)c3)C2)s1 (stereo not drawn) [Compound 133, 2-(5-(cyclopropylmethyl)-4-(3-fluoro-4-sulfamoylbenzyl)-3-(3-(3-(5-methylthiophen-2-yl)cyclobutyl)phenyl)-1H-pyrazol-1-yl)thiazole-4-carboxylic acid]	< 100 nM
NS(=O)(=O)c1ccc(Cc2c(-c3ccc(F)c(C4=Cc5ccccc5C4)c3)nn(-c3nc(C(=O)O)cs3)c2CC2CC2)cc1F [Compound 105, 2-(5-(cyclopropylmethyl)-3-(4-fluoro-3-(1H-inden-2-yl)phenyl)-4-(3-fluoro-4-sulfamoylbenzyl)-1H-pyrazol-1-yl)thiazole-4-carboxylic acid]	< 100 nM
CC(C)c1cnc(-c2cccc(-c3nn(-c4nc(C(=O)O)cs4)c(CC4CC4)c3Cc3ccc(S(N)(=O)=O)c(F)c3)c2)s1 [Compound 215, 2-[5-(cyclopropylmethyl)-4-[(3-fluoro-4-sulfamoylphenyl)methyl]-3-[3-(5-isopropyl-1,3-thiazol-2-yl)phenyl]pyrazol-1-yl]-1,3-thiazole-4-carboxylic acid]	< 100 nM
Cc1cnc(-c2cccc(-c3nn(-c4nc(C(=O)O)cs4)c(CC4CC4)c3Cc3ccc(S(N)(=O)=O)c(F)c3)c2)nc1 [Compound 217, 2-[5-(cyclopropylmethyl)-4-[(3-fluoro-4-sulfamoylphenyl)methyl]-3-[3-(5-methylpyrimidin-2-yl)phenyl]pyrazol-1-yl]-1,3-thiazole-4-carboxylicacid]	< 100 nM
Cc1ccc(-c2cccc(-c3nn(-c4nc(C(=O)O)cs4)c(CC4CC4)c3Cc3ccc(S(N)(=O)=O)c(F)c3)c2)nc1 [Compound 203, 2-(5-(cyclopropylmethyl)-4-(3-fluoro-4-sulfamoylbenzyl)-3-(3-(5-methylpyridin-2-yl)phenyl)-1H-pyrazol-1-yl)thiazole-4-carboxylic acid]	< 100 nM
CC(C)(C)NC(=O)c1cc(-c2nn(-c3nc(C(=O)O)cs3)c(CC3CC3)c2Cc2ccc([S+](N)(=O)[O-])c(F)c2)ccc1F [Compound 147, 2-(3-(3-(tert-butylcarbamoyl)-4-fluorophenyl)-5-(cyclopropylmethyl)-4-(3-fluoro-4-sulfamoylbenzyl)-1H-pyrazol-1-yl) thiazole-4-carboxylic acid]	< 100 nM
Cc1ncc(C#Cc2cccc(-c3nn(-c4nc(C(=O)O)cs4)c(CCC4CC4)c3Cc3ccc(S(N)(=O)=O)c(F)c3)c2)s1 [Compound 235, 2-(5-(2-cyclopropylethyl)-4-(3-fluoro-4-sulfamoylbenzyl)-3-(3-((2-methylthiazol-5-yl)ethynyl)phenyl)-1H-pyrazol-1-yl)thiazole-4-carboxylic acid]	< 100 nM
NS(=O)(=O)c1ccc(Cc2c(-c3cccc(-c4nc5ccccc5[nH]4)c3)nn(-c3nc(C(=O)O)cs3)c2CC2CC2)cc1F [Compound 189, 2-(3-(3-(1H-benzo[d]imidazol-2-yl)phenyl)-5-(cyclopropylmethyl)-4-(3-fluoro-4-sulfamoylbenzyl)-1H-pyrazol-1-yl)thiazole-4-carboxylic acid]	< 100 nM
NS(=O)(=O)c1ccc(Cc2c(-c3ccc(F)c(N4CCCC4=O)c3)nn(-c3nc(C(=O)O)cs3)c2CC2CC2)cc1F [Compound 202, 2-(5-(cyclopropylmethyl)-3-(4-fluoro-3-(2-oxopyrrolidin-1-yl)phenyl)-4-(3-fluoro-4-sulfamoylbenzyl)-1H-pyrazol-1-yl)thiazole-4-carboxylic acid]	< 100 nM
Cc1ccc(C(=O)Cc2cccc(-c3nn(-c4nc(C(=O)O)cs4)c(CC4CC4)c3Cc3ccc(S(N)(=O)=O)c(F)c3)c2)s1 [Compound 242, 2-(5-(cyclopropylmethyl)-4-(3-fluoro-4-sulfamoylbenzyl)-3-(3-(2-(5-methylthiophen-2-yl)-2-oxoethyl)phenyl)-1H-pyrazol-1-yl)thiazole-4-carboxylic acid]	< 100 nM
Cc1ccc(-c2cccc(-c3nn(-c4nc(C(=O)O)cs4)c(CC4CC4)c3Cc3ccc(S(N)(=O)=O)c(F)c3)c2)cn1 [Compound 204, 2-(5-(cyclopropylmethyl)-4-(3-fluoro-4-sulfamoylbenzyl)-3-(3-(6-methylpyridin-3-yl)phenyl)-1H-pyrazol-1-yl)thiazole-4-carboxylic acid]	< 100 nM
Cc1ncc(-c2cccc(-c3nn(-c4nc(C(=O)O)cs4)c(CC4CC4)c3Cc3ccc(S(N)(=O)=O)c(F)c3)c2)cn1 [Compound 214, 2-[5-(cyclopropylmethyl)-4-[(3-fluoro-4-sulfamoylphenyl)methyl]-3-[3-(2-methylpyrimidin-5-yl)phenyl]pyrazol-1-yl]-1,3-thiazole-4-carboxylic acid]	< 100 nM
NS(=O)(=O)c1ccc(Cc2c(-c3ccc(F)c(C4=CCC5(CC4)CC5)c3)nn(-c3nc(C(=O)O)cs3)c2CC2CC2)cc1F [Compound 108, 2-(5-(cyclopropylmethyl)-3-(4-fluoro-3-(spiro[2.5]oct-5-en-6-yl)phenyl)-4-(3-fluoro-4-sulfamoylbenzyl)-1H-pyrazol-1-yl)thiazole-4-carboxylic acid]	< 100 nM
Cc1cc(C#Cc2cccc(-c3nn(-c4nc(C(=O)O)cs4)c(CC4CC4)c3Cc3ccc(S(N)(=O)=O)c(F)c3)c2)cs1 [Compound 240, 2-(5-(cyclopropylmethyl)-4-(3-fluoro-4-sulfamoylbenzyl)-3-(3-((5-methylthiophen-3-yl)ethynyl)phenyl)-1H-pyrazol-1-yl)thiazole-4-carboxylic acid]	< 100 nM
Cc1ccc(-c2cccc(-c3nn(-c4nc(C(=O)O)cs4)c(CC4CC4)c3Cc3ccc(S(N)(=O)=O)c(F)c3)c2)cc1 [Compound 198, 2-(5-(cyclopropylmethyl)-4-(3-fluoro-4-sulfamoylbenzyl)-3-(4′-methyl-[1,1′-biphenyl]-3-yl)-1H-pyrazol-1-yl)thiazole-4-carboxylic acid]	< 100 nM
NS(=O)(=O)c1ccc(Cc2c(-c3ccc(F)c(-c4nc5ccccc5[nH]4)c3)nn(-c3nc(C(=O)O)cs3)c2CC2CC2)cc1F [Compound 160, 2-(3-(3-(1H-benzo[d]imidazol-2-yl)-4-fluorophenyl)-5-(cyclopropylmethyl)-4-(3-fluoro-4-sulfamoylbenzyl)-1H-pyrazol-1-yl)thiazole-4-carboxylic acid]	< 100 nM
Cc1nc(C#Cc2cccc(-c3nn(-c4nc(C(=O)O)cs4)c(CC4CC4)c3Cc3ccc(S(N)(=O)=O)c(F)c3)c2)cs1 [Compound 236, 2-(5-(cyclopropylmethyl)-4-(3-fluoro-4-sulfamoylbenzyl)-3-(3-((2-methylthiazol-4-yl)ethynyl)phenyl)-1H-pyrazol-1-yl)thiazole-4-carboxylic acid]	< 100 nM
NS(=O)(=O)c1ccc(Cc2c(-c3ccc(F)c(C4=CCC(C(F)(F)F)CC4)c3)nn(-c3nc(C(=O)O)cs3)c2CC2CC2)cc1F (stereo not drawn) [Compound 102, 2-(5-(cyclopropylmethyl)-3-(6-fluoro-4′-(trifluoromethyl)-2′,3′,4′,5′-tetrahydro-[1,1′-biphenyl]-3-yl)-4-(3-fluoro-4-sulfamoylbenzyl)-1H-pyrazol-1-yl)thiazole-4-carboxylic acid]	< 100 nM
NS(=O)(=O)c1ccc(Cc2c(-c3ccc(F)c(-c4ccc5c(c4)CCCC5)c3)nn(-c3nc(C(=O)O)cs3)c2CC2CC2)cc1F [Compound 143, 2-(5-(cyclopropylmethyl)-3-(4-fluoro-3-(5,6,7,8-tetrahydronaphthalen-2-yl)phenyl)-4-(3-fluoro-4-sulfamoylbenzyl)-1H-pyrazol-1-yl)thiazole-4-carboxylic acid]	< 100 nM
NS(=O)(=O)c1ccc(Cc2c(-c3ccc(F)c(-c4ccc(F)c(F)c4)c3)nn(-c3nc(C(=O)O)cs3)c2CC2CC2)cc1F [Compound 136, 2-(5-(cyclopropylmethyl)-4-(3-fluoro-4-sulfamoylbenzyl)-3-(3′,4′,6-trifluoro-[1,1′-biphenyl]-3-yl)-1H-pyrazol-1-yl)thiazole-4-carboxylic acid]	< 100 nM
CCC#Cc1cc(-c2nn(-c3nc(C(=O)O)cs3)c(CC3CC3)c2Cc2ccc([S+](N)(=O)[O-])c(F)c2)ccc1F [Compound 109, 2-(3-(3-(but-1-yn-1-yl)-4-fluorophenyl)-5-(cyclopropylmethyl)-4-(3-fluoro-4-sulfamoylbenzyl)-1H-pyrazol-1-yl)thiazole-4-carboxylic acid]	< 100 nM
NS(=O)(=O)c1ccc(Cc2c(-c3cccc(C(=O)N4CCCC4)c3)nn(-c3nc(C(=O)O)cs3)c2CC2CC2)cc1 [Compound 145, 2-(5-(cyclopropylmethyl)-3-(3-(pyrrolidine-1-carbonyl)phenyl)-4-(4-sulfamoylbenzyl)-1H-pyrazol-1-yl)thiazole-4-carboxylic acid]	< 100 nM
Cc1cc(-c2cccc(-c3nn(-c4nc(C(=O)O)cs4)c(CC4CC4)c3Cc3ccc(S(N)(=O)=O)c(F)c3)c2)ccc1O [Compound 228, 2-(5-(cyclopropylmethyl)-4-(3-fluoro-4-sulfamoylbenzyl)-3-(4′-hydroxy-3′-methyl-[1,1′-biphenyl]-3-yl)-1H-pyrazol-1-yl)thiazole-4-carboxylic acid]	< 100 nM
